Among the data in PubChem BioAssay (NCI) are TGI values, retold here.

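Method: 48-hour compound exposure of cells in 96-well plates, five concentrations, linear interpolation of endpoints. At the TGI there is no net growth.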

Among the test systems are ACHN renal; CCRF-CEM leukemia; HCC-2998 colon; HCT-15 colon; IGROV1 ovarian; NCI-H23 lung; OVCAR-3 ovarian; SF-295 CNS; SK-MEL-2 melanoma; SN12C renal; SR leukemia; U251 CNS; UACC-257 melanoma; UACC-62 melanoma; UO-31 renal.
Common to all, as to assay: NCI-60 cell line screen, 48 h

As to `C1=Cc2cccc3occ(c23)C=C1`, the TGI was above 100 µM in the assay on ACHN renal; 49.9 µM in the assay with CCRF-CEM leukemia; above 100 µM in the assay with HCC-2998 colon; above 100 µM in the assay on HCT-15 colon; above 100 µM in the assay with IGROV1 ovarian; above 100 µM in the assay with NCI-H23 lung. Moreover, the TGI is above 100 µM with OVCAR-3 ovarian; above 100 µM with SF-295 CNS; above 100 µM in the assay with SK-MEL-2 melanoma; above 100 µM with SN12C renal; 43 µM in the assay with SR leukemia; above 100 µM in the assay with U251 CNS. The TGI with UACC-257 melanoma, in the assay with UACC-62 melanoma and in the assay with UO-31 renal was above 100 µM each time.
Regarding `CCOC(=O)C1=NNC(C(=O)c2ccccc2)C1c1ccccc1` (stereo not given), the TGI in the assay with ACHN renal is 3.71 µM; in the assay with CCRF-CEM leukemia it was above 100 µM; in the assay with HCC-2998 colon, 3.92 µM; in the assay on HCT-15 colon, 5.94 µM; with IGROV1 ovarian, above 34 µM; in the assay with NCI-H23 lung, 6.17 µM. For the same compound, the TGI in the assay on OVCAR-3 ovarian was 11 µM; in the assay with SF-295 CNS, 31.8 µM; in the assay with SK-MEL-2 melanoma, 31.2 µM; in the assay with SN12C renal, 3.89 µM; with SR leukemia, above 100 µM; in the assay on U251 CNS it was 8.48 µM. Also, the TGI in the assay on UACC-257 melanoma is 6.74 µM; in the assay with UACC-62 melanoma, 8.63 µM; with UO-31 renal it was 3.71 µM.
